The subject of data set [1] is ventricular effective refractory period. The experiment in a line: Ventricular effective refractory period in halothane-anesthetized dogs. Format: in vivo. The following applies: for ED (+30 msec): Canis lupus familiaris; for I.D./I.V. (ratio of intraduodenal to intravenous dose): ratio of doses for +30 msec refractory period. On the procedure: Certain of the compounds of the present invention were tested in halothane-anesthetized dogs in an effort to evaluate the effectiveness of the compounds in increasing the ventricular effective refractory period. Table 2 provides the quantity of specified compound in mg/kg necessary to increase the aforementioned refractory period by 30 msec. when administered either intravenously or intraduadenally. The compounds were tested against clofilium and N-ethyl-N-heptyl-4-nitrobenzenebutanamine, ethanedioic acid for comparative purposes.

For data set [2] the following is noted: clofilium and similar quaternary ammonium salts; background; cited from earlier work.
Data set [3] deals with normal canine Purkinje fibers. The experiment in a line: Action potential duration of normal canine Purkinje fibers superfused in vitro (standard electrophysiological techniques). Format: cell-based. The following applies: Canis lupus familiaris, 10^-7 M, Ringer's solution at 35° C., driven at 1 Hz, read-out: Percent Increase in Action Potential Duration (at 95% of full repolarization). On the procedure: The antiarrhythmic activity of the compounds provided by the present invention was determined by the use of standard electrophysiological techniques to measure resting potential, action potential amplitude, duration, rate of rise and effective refractory periods of normal canine Purkinje fibers superfused in vitro with Ringer's solution at 35° C. and driven at a constant frequency of 1 Hz. Table 1 presents the data obtained for a number of compounds of the invention when evaluated in this test. The data presented is the percent increase in the action potential duration at 95% of full repolarization at 10^-7 M.

Where [4] appears, read: intraduodenal, read-out: quantity of compound necessary to increase the ventricular effective refractory period by 30 msec., Intraduodenal.
[5] abbreviates: intravenous, read-out: quantity of compound necessary to increase the ventricular effective refractory period by 30 msec., Intravenous.

Read-outs that look alike come from different tables or passages of the source.

Turning to `CCCCCCCN(CCCC)C(C)CCCc1ccc(NS(C)(=O)=O)cc1` (centres unmarked) [Example 4, N-[4-[4-(Butylheptylamino)pentyl]phenyl]methanesulfonamide], the ED (+30 msec) in data set [1] (setting [4]) was 4 mg/kg; in data set [1] (setting [5]) it was 0.25 mg/kg. Further, the “I.D./I.V. (ratio of intraduodenal to intravenous dose)” value in data set [1] is 16.
`CCCCCCCN(CC)CCCCc1ccc([N+](=O)[O-])cc1.O=C(O)C(=O)O` [N-ethyl-N-heptyl-4-nitrobenzenebutanamine, ethanedioic acid, reference compound]: the ED (+30 msec) was found to be 1.1 mg/kg in data set [1] (setting [4]) and 0.06 mg/kg in data set [1] (setting [5]). The “I.D./I.V. (ratio of intraduodenal to intravenous dose)” value in data set [1] is on record as 18.
Take `CCCCCCC[N+](CC)(CC)CCCCc1ccc(Cl)cc1` [clofilium, 4-chloro-N,N-diethyl-N-heptylbenzenebutanaminium phosphate, reference compound]: in data set [2], the oral bioavailability result is given as “marginal oral bioavailability”. The ED (+30 msec) in data set [1] (setting [4]) is 7 mg/kg; in data set [1] (setting [5]), 0.18 mg/kg. Also, in data set [1], the “I.D./I.V. (ratio of intraduodenal to intravenous dose)” value is listed as 39.
In the case of `CCCCCCCN(CC)CCCCc1cccc(NS(C)(=O)=O)c1` [Example 7, N-[3-[4-(Ethylheptylamino)butyl]phenyl]methanesulfonamide], the activation at 0.1 µM in data set [3] came to 20 ± 9%.
In the case of `CCCCCCCN(CCCC)CCCCc1ccc(NS(C)(=O)=O)cc1` [Example 3, N-[4-[4-(Butylheptylamino)butyl]phenyl]methanesulfonamide ethanedioate], in data set [3], the activation at 0.1 µM turned out to be 26 ± 4%. In addition, the results for the ED (+30 msec) in data set [1] (setting [4]) and in data set [1] (setting [5]) were 2.4 mg/kg and 0.1 mg/kg, respectively. In data set [1], the “I.D./I.V. (ratio of intraduodenal to intravenous dose)” value came out at 24.
The matching figures for `CCCCCCCN(CC)CCCCc1ccc(NS(C)(=O)=O)cc1` [Example 1, N-[4-[4-(Ethylheptylamino)butyl]phenyl]methanesulfonamide ethanedioate]: 31 ± 6%, 2.2 mg/kg, 0.29 mg/kg and 8.
For `CCCCCCCN(CC)CCCCc1ccc(NS(=O)(=O)CC)cc1` [Example 8, N-[4-[4-(Ethylheptylamino)butyl]phenyl]ethanesulfonamide], the activation at 0.1 µM in data set [3] was 19 ± 4%.
Regarding `CCCCCCCN(CC)C(C)CCCc1ccc(NS(C)(=O)=O)cc1` (centres unmarked) [Example 2, N-[4-[4-(Ethylheptylamino)pentyl]phenyl]methanesulfonamide 2-hydroxy-1,2,3-propanetricarboxylate], the ED (+30 msec) in data set [1] (setting [4]) is 8 mg/kg; in data set [1] (setting [5]) it was 0.27 mg/kg. In data set [1], the “I.D./I.V. (ratio of intraduodenal to intravenous dose)” value came to 30.

The record behind these values is patent US4569801A, “Alkylsulfonamidophenylalkylamines” (priority 1984, dated 1986).
